Measured values: PubChem BioAssay AID1963978 (Molecular Pharmacology Branch, DTP, NCI, 2024)

Test system: 616215-338-R-J1-PDC spheroids with HUVEC/MSC, viability
Assay: Anticancer human tumor 616215-338-R-J1-PDC patient-derived colon adenocarcinoma cell line growth inhibition [PI3K]
Conditions: for viability, T/C: stronger effect = lower value
Method in brief: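 We assembled tumor spheroids that included a stromal compartment of HUVEC and MSCs, then exposed them to targeted agents alone and together with PI3K pathway inhibitors. Concentration series descended by half-log from clinically achievable Cmax levels. Viability served as the endpoint.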

[1] = curve of first compound, second compound 0.00316 µM
[2] = curve of first compound, second compound 0.01 µM
[3] = curve of first compound, second compound 0.0316 µM
[4] = curve of first compound, second compound 0.1 µM
[5] = curve of first compound, second compound 0.316 µM
[6] = curve of first compound, second compound 1 µM
[7] = second compound 0.00316 µM, first compound 0.0316 µM
[8] = second compound 0.00316 µM, first compound 0.1 µM
[9] = second compound 0.00316 µM, first compound 0.316 µM
[10] = second compound 0.00316 µM, first compound 1 µM
[11] = second compound 0.00316 µM, first compound 3.16 µM
[12] = second compound 0.00316 µM, first compound 10 µM
[13] = second compound 0.01 µM, first compound 0.0316 µM
[14] = second compound 0.01 µM, first compound 0.1 µM
[15] = second compound 0.01 µM, first compound 0.316 µM
[16] = second compound 0.01 µM, first compound 1 µM
[17] = second compound 0.01 µM, first compound 3.16 µM
[18] = second compound 0.01 µM, first compound 10 µM
[19] = second compound 0.0316 µM, first compound 0.0316 µM
[20] = second compound 0.0316 µM, first compound 0.1 µM
[21] = second compound 0.0316 µM, first compound 0.316 µM
[22] = second compound 0.0316 µM, first compound 1 µM
[23] = second compound 0.0316 µM, first compound 3.16 µM
[24] = second compound 0.0316 µM, first compound 10 µM
[25] = second compound 0.1 µM, first compound 0.0316 µM
[26] = second compound 0.1 µM, first compound 0.1 µM
[27] = second compound 0.1 µM, first compound 0.316 µM
[28] = second compound 0.1 µM, first compound 1 µM
[29] = second compound 0.1 µM, first compound 3.16 µM
[30] = second compound 0.1 µM, first compound 10 µM
[31] = second compound 0.316 µM, first compound 0.0316 µM
[32] = second compound 0.316 µM, first compound 0.1 µM
[33] = second compound 0.316 µM, first compound 0.316 µM
[34] = second compound 0.316 µM, first compound 1 µM
[35] = second compound 0.316 µM, first compound 3.16 µM
[36] = second compound 0.316 µM, first compound 10 µM
[37] = second compound 1 µM, first compound 0.0316 µM
[38] = second compound 1 µM, first compound 0.1 µM
[39] = second compound 1 µM, first compound 0.316 µM
[40] = second compound 1 µM, first compound 1 µM
[41] = second compound 1 µM, first compound 3.16 µM
[42] = second compound 1 µM, first compound 10 µM
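Further: spheroids exposed to agents for seven days before the viability read.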

Structure (SMILES): CC(C)n1nc(-c2ccc3oc(N)nc3c2)c2c(N)ncnc21
- viability, T/C (compound 0.000316 µM): 95.1% [middle of 4 runs]
- viability, T/C (compound 0.001 µM): 95.7% [middle of 4 runs]
- viability, T/C (compound 0.00316 µM): 100% [middle of 4 runs]
- viability, T/C (compound 0.01 µM): 107% [middle of 4 runs]
- viability, T/C (compound 0.0316 µM): 121% [middle of 4 runs]
- viability, T/C (compound 0.1 µM): 94.5% [middle of 4 runs]
- IC50 (curve of compound): > 0.1 µM

Structure (SMILES): CCCS(=O)(=O)Nc1ccc(F)c(C(=O)c2c[nH]c3ncc(-c4ccc(Cl)cc4)cc23)c1F + CC(Nc1ccc2c(c1)OCCn1cc(N3C(=O)OCC3C(F)F)nc1-2)C(N)=O
- IC50 [1]: 4.92 µM
- IC50 [2]: 4.9 µM
- IC50 [3]: 4.61 µM
- IC50 [4]: 4.47 µM
- IC50 [5]: 4.68 µM
- IC50 [6]: 3.81 µM
- viability, T/C [7]: 91.3%
- viability, T/C [8]: 92.7%
- viability, T/C [9]: 90.8%
- viability, T/C [10]: 88.8%
- viability, T/C [11]: 79.9%
- viability, T/C [12]: 2.03%
- viability, T/C [13]: 97.9%
- viability, T/C [14]: 93.1%
- viability, T/C [15]: 92.2%
- viability, T/C [16]: 92.9%
- viability, T/C [17]: 79%
- viability, T/C [18]: 2.65%
- viability, T/C [19]: 94.6%
- viability, T/C [20]: 103%
- viability, T/C [21]: 91.3%
- viability, T/C [22]: 95.4%
- viability, T/C [23]: 72.9%
- viability, T/C [24]: 3.28%
- viability, T/C [25]: 107%
- viability, T/C [26]: 98%
- viability, T/C [27]: 92.7%
- viability, T/C [28]: 103%
- viability, T/C [29]: 69.9%
- viability, T/C [30]: 3.51%
- viability, T/C [31]: 103%
- viability, T/C [32]: 103%
- viability, T/C [33]: 109%
- viability, T/C [34]: 102%
- viability, T/C [35]: 73.3%
- viability, T/C [36]: 4.84%
- viability, T/C [37]: 108%
- viability, T/C [38]: 98.1%
- viability, T/C [39]: 106%
- viability, T/C [40]: 102%
- viability, T/C [41]: 58.8%
- viability, T/C [42]: 4.52%

Structure (SMILES): C#Cc1c(F)ccc2cc(O)cc(-c3ncc4c(N5CC6CCC(C5)N6)nc(OCC56CCCN5CC(F)C6)nc4c3F)c12 (stereo unspecified) + CC(Nc1ccc2c(c1)OCCn1cc(N3C(=O)OCC3C(F)F)nc1-2)C(N)=O
- IC50 [1]: > 10 µM
- IC50 [2]: > 10 µM
- IC50 [3]: > 10 µM
- IC50 [4]: > 10 µM
- IC50 [5]: 6.86 µM
- IC50 [6]: 7.1 µM
- viability, T/C [7]: 102%
- viability, T/C [8]: 79.6%
- viability, T/C [9]: 111%
- viability, T/C [10]: 100%
- viability, T/C [11]: 90.5%
- viability, T/C [12]: 74.6%
- viability, T/C [13]: 90%
- viability, T/C [14]: 94%
- viability, T/C [15]: 102%
- viability, T/C [16]: 95.7%
- viability, T/C [17]: 98.2%
- viability, T/C [18]: 62.2%
- viability, T/C [19]: 96%
- viability, T/C [20]: 95.4%
- viability, T/C [21]: 106%
- viability, T/C [22]: 99.7%
- viability, T/C [23]: 81.8%
- viability, T/C [24]: 62.6%
- viability, T/C [25]: 101%
- viability, T/C [26]: 100%
- viability, T/C [27]: 101%
- viability, T/C [28]: 83.1%
- viability, T/C [29]: 79.7%
- viability, T/C [30]: 52.8%
- viability, T/C [31]: 100%
- viability, T/C [32]: 96.5%
- viability, T/C [33]: 95.9%
- viability, T/C [34]: 87.2%
- viability, T/C [35]: 71.4%
- viability, T/C [36]: 39.5%
- viability, T/C [37]: 95.3%
- viability, T/C [38]: 84.2%
- viability, T/C [39]: 90.1%
- viability, T/C [40]: 86.9%
- viability, T/C [41]: 67.5%
- viability, T/C [42]: 42.6%
